Tested on: OPN knockout (OPN-KO) mice
Test: Determination of cancellous bone mass (BV/TV) after PTH treatment, OPN-KO mice
Format: in vivo, mouse
Settings: PTH(+) group, 80 μg/kg s.c., 4 weeks, five days a week, mean ± standard error
Experimental: Sagittal sections were prepared from the metaphyseal region of femur and tomographed using an X-ray microtomograph Musashi (Nittetsu-ELEX, Osaka, Japan). A Luzex-F automated Image analysis system (Nireco, Tokyo, Japan) was then used for analysis of the image data from a 1.47 mm^2 square area (0.7 mm×2.1 mm) located 0.2 mm apart from the growth plate of the distal end of femur to obtain BV/TV values.
BV/TV (bone volume/total tissue volume) denotes the unit bone mass (%), i.e., the percentage of the total trabecular volume in the total tissue volume. Namely, an increase in BV/TV means an increase in calcified bone.
To create an animal model in which the in vivo effects of OPN were inhibited, strain 129 female mice at 7 weeks of age were modified into knockout mice deficient in the OPN gene (OPN-KO mice), as described in Rittling et al. J. Bone Miner. Res., 13: 1101-1111, 1998. These mice were singly used for PTH treatment test. They were divided into groups of 6 mice each.
Recombinant human PTH(1-34) (Bachem, Torrance, Calif.) was dissolved in acidified physiological saline supplemented with 0.1% bovine serum albumin (Sigma Chemical Co.-Aldrich, St. Louis, Mo.). The OPN-KO mice were subcutaneously administered with 80 μg/kg of body weight human PTH(1-34) for 4 weeks on a five-days-a-week basis. Mice in the control group were administered with physiological saline alone.

Substance: human PTH(1-34)
- cancellous bone mass BV/TV: 24.41±2.85%

Source: patent US20080076711A1, “Therapeutic agents for osteopenia” (Chugai Seiyaku Kabushiki Kaisha, priority 2001, published 2008)
